Assay results taken from the supplement of paper PMC11821682.

Columns and labels:
Danio rerio embryo = experiment: BMC10 any morphological effect or mortality at 120 hpf; higher = less toxic
HL-60 = experiment: Cell Health Index (toxicity pseudo-probability over dose series) (index 0-1); higher = more cytotoxic / cell stress;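 also: HL-60 cells exposed 4 h at 37 °C to ten threefold dilutions spanning 5 nM to 100 µM, multiparametric flow cytometry features scored by machine-learning classification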

Compound	BMC10 any morphological effect or mortality (Danio rerio embryo) [µM]	Cell Health Index (HL-60)
CCC(CC)COC(=O)[C@H](C)N[P@](=O)(OC[C@H]1O[C@@](C#N)(c2ccc3c(N)ncnn23)[C@H](O)[C@@H]1O)Oc1ccccc1 [Remdesivir]	> 100	0.275
CCOCc1nc2c(N)nc3ccccc3c2n1CC(C)(C)O [Resiquimod]	> 100	0.38
Oc1ccc(/C=C\c2cc(O)cc(O)c2)cc1 [Resveratrol]	> 100	0.416
Cc1cc(/C=C/C#N)cc(C)c1Nc1ccnc(Nc2ccc(C#N)cc2)n1 [Rilpivirine]	> 100	0.639
CC(N)C12C[C@H]3C[C@@H](C1)C[C@@H](C2)C3.Cl (stereo partly specified) [Rimantadine]	> 100	0.137
O=P([O-])(O)C(O)(Cc1cccnc1)P(=O)(O)O.[Na+] [Risedronic acid]	> 100	0.203
CC(C)c1nc(CN(C)C(=O)N[C@H](C(=O)N[C@@H](Cc2ccccc2)C[C@H](O)[C@H](Cc2ccccc2)NC(=O)OCc2cncs2)C(C)C)cs1 [Ritonavir]	> 100	0.532
Nc1ccc(-c2nc3ccc(-c4nc5cc(N)ccc5[nH]4)cc3[nH]2)cc1 [Ro 90-7501]	> 100	0.512
COc1ccc(C2CNC(=O)C2)cc1OC1CCCC1 (stereo unspecified) [Rolipram]	> 100	0.152
C[C@@H]1O[C@@H](OC[C@H]2O[C@@H](Oc3c(-c4ccc(O)c(O)c4)oc4cc(O)cc(O)c4c3=O)[C@H](O)[C@@H](O)[C@@H]2O)[C@H](O)[C@H](O)[C@H]1O.O.O.O [Rutin]	> 100	0.252
Cc1ccc(S(=O)(=O)OCC(=O)Nc2ccc(C(=O)O)c(O)c2)cc1 [S3I-201]	> 100	0.259
CC(=O)SC[C@H](NC(=O)CC[C@H](N)C(=O)O)C(=O)NCC(=O)O [S-acetyl-L-Glutathione]	> 100	0.168
O=C(CCCCCCC(=O)Nc1ccccc1)NO [SAHA]	> 100	0.239
O=C(/C=C/c1ccccc1)NC(NC(=S)Nc1cccc2cccnc12)C(Cl)(Cl)Cl (stereo unspecified) [Salubrinal]	> 100	0.377
O=C1/C(=C/c2ccc(O)c(O)c2)COc2cc(O)ccc21 [Sappanone A]	> 100	0.614
CC(C)(C)NC(=O)[C@@H]1C[C@@H]2CCCC[C@@H]2CN1C[C@@H](O)[C@H](Cc1ccccc1)NC(=O)[C@H](CC(N)=O)NC(=O)c1ccc2ccccc2n1.CS(=O)(=O)O [Saquinavir]	> 100	0.87
O=c1cc(-c2ccc(O)cc2)oc2cc(O)c(O)c(O)c12 [Scutellarein]	> 100	0.815
O=C(O)[C@H]1O[C@@H](Oc2cc3oc(-c4ccc(O)cc4)cc(=O)c3c(O)c2O)[C@H](O)[C@@H](O)[C@@H]1O [Scutellarin]	> 100	0.476
O=C(O)c1cc(O)c2c(c1)[C@H]([C@H]1c3cc(C(=O)O)cc(O)c3C(=O)c3c(O[C@@H]4O[C@H](CO)[C@@H](O)[C@H](O)[C@H]4O)cccc31)c1cccc(O[C@@H]3O[C@H](CO)[C@@H](O)[C@H](O)[C@H]3O)c1C2=O [Sennoside A]	> 100	0.422

Compound	BMC10 any morphological effect or mortality (Danio rerio embryo) [µM]	Cell Health Index (HL-60)
CC(C)OC(=O)[C@H](C)NP(=O)(OC[C@H]1O[C@@H](n2ccc(=O)[nH]c2=O)[C@](C)(F)[C@@H]1O)Oc1ccccc1 (stereo partly specified) [Sofosbuvir]	> 100	0.166
O=C1C=CC[C@@H]2[C@H]3CCCN4CCC[C@@H](CN12)[C@@H]34 [Sophocarpine]	> 100	0.164
OC[C@H]1O[C@@H](O[C@H]2C(O)O[C@H](CO)[C@@H](O)[C@@H]2O)[C@H](O)[C@@H](O)[C@@H]1O (stereo partly specified) [Sophorose]	> 100	0.187
Cc1cn([C@H]2C=C[C@@H](CO)O2)c(=O)[nH]c1=O [Stavudine]	> 100	0.204
COc1ncnc(NS(=O)(=O)c2ccc(N)cc2)c1OC [Sulfadoxin]	> 100	0.201
CCC[C@H](NC(=O)[C@@H]1[C@H]2CCC[C@H]2CN1C(=O)[C@@H](NC(=O)[C@@H](NC(=O)c1cnccn1)C1CCCCC1)C(C)(C)C)C(=O)C(=O)NC1CC1 [Telaprevir]	> 100	0.402
Cc1cn([C@@H]2C[C@@H](O)[C@H](CO)O2)c(=O)[nH]c1=O [Telbivudine]	> 100	0.153
COc1cnc(-n2cnc(C)n2)c2[nH]cc(C(=O)C(=O)N3CCN(C(=O)c4ccccc4)CC3)c12 [Temsavir]	> 100	0.146
CC(C)OC(=O)OCOP(=O)(CO[C@H](C)Cn1cnc2c(N)ncnc21)OCOC(=O)OC(C)C.O=C(O)/C=C/C(=O)O [Tenofovir Disoproxil]	> 100	0.212
C[C@H](Cn1cnc2c(N)ncnc21)OCP(=O)(O)O [Tenofovir]	> 100	0.229
O=c1c(O)cc([C@H]2Oc3cc(O)cc(O)c3C[C@H]2O)cc2c([C@H]3Oc4cc(O)cc(O)c4C[C@H]3O)cc(O)c(O)c12 [Theaflavin]	> 100	0.752
Nc1nc(S)c2nc[nH]c2n1 [Thioguanine]	> 100	0.294
C[C@@H]1CCN(C(=O)CC#N)C[C@@H]1N(C)c1ncnc2[nH]ccc12.O=C(O)CC(O)(CC(=O)O)C(=O)O [Tofacitinib]	> 100	0.228
O=c1[nH]c(=O)n([C@H]2C[C@H](O)[C@@H](CO)O2)cc1C(F)(F)F [Trifluorothymidine]	> 100	0.138
C[n+]1cccc(C(=O)O)c1.[Cl-] [Trigonelline]	> 100	0.15
O=C(CCc1ccc(O)cc1)c1c(O)cc(O[C@@H]2O[C@H](CO)[C@@H](O)[C@H](O)[C@H]2O)cc1O [Trilobatin]	> 100	0.183
COc1cc(C(=O)NCc2ccc(OCCN(C)C)cc2)cc(OC)c1OC.Cl [Trimethobenzamide]	> 100	0.194
Cc1ccc2c(=O)c3cccc(CC(=O)O)c3oc2c1C [Vadimezan]	> 100	0.169
CC(C)[C@H](N)C(=O)OCCOCn1cnc2c(=O)nc(N)[nH]c21.Cl [Valacyclovir]	> 100	0.145
